This passage reports Kb and IC50 results from patent US11453660B2, “Androgen receptor and glucocorticoid receptor modulators” (ONCOSTELLAE, S.L., priority 2017, dated 2022).

Changes are numbered by the printed parent chain.

The target of test [1] is T1, AR-Receptor (Homo sapiens, UniProt P10275).
T1 sequence (P10275 1-920 Q868H): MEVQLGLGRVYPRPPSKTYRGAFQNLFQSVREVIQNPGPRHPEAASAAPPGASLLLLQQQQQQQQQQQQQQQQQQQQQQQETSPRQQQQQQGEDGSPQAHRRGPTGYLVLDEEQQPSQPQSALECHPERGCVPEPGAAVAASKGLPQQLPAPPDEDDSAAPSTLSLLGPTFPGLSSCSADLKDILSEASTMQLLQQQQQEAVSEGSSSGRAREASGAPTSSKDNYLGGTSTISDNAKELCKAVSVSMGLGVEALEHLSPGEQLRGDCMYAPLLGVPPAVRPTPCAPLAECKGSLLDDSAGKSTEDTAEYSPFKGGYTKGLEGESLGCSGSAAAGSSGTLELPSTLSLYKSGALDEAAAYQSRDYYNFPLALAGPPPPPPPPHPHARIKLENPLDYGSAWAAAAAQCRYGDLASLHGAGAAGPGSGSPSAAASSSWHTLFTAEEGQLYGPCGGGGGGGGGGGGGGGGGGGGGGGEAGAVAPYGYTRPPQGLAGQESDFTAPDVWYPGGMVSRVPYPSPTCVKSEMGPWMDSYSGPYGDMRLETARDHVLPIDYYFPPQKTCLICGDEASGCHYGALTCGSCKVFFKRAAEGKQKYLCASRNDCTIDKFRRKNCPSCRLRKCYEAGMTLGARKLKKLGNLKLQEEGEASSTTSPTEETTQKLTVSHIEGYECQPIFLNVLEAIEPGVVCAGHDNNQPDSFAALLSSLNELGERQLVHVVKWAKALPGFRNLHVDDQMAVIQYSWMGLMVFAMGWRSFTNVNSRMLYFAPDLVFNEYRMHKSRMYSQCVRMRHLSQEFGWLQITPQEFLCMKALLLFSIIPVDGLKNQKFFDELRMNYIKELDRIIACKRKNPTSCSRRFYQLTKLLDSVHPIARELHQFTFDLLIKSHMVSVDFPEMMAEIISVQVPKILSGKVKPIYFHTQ
The test can be described thus: Functional Assay AR-Receptor (MDA-MB-453 cells, luciferase). The class given is cell-based. As to conditions: antagonist effect in the presence of DHT 1 nM, 24 h, luciferase luminescence, read-out: AR antag KB. The method, then: Functional Assay AR-Receptor
MDA-MB-453 cells were cultured in DMEM (ATCC, ref 30-2002), 10% FBS, 1% penicillin, 1% streptomycin, 75 μg/ml gentamycin.
The day before performing assay, the cells were trypsinized and seeded in a 384-well plate (Greiner, ref 781098) (8000 cells/well) in 50 μl of complete culture medium. Cells were stores at 37° C. in a 5% CO2 atmosphere overnight.
The medium was replaced by 50 μl complete growth medium with 0.1% FBS. Compounds were dispensed with Echo 550 (Labcyte) and incubated for 24 h at 37° C. in a 5% CO2 atmosphere. Antagonist effect was measured in the presence of DHT 1 nM.
After incubation, assay medium removed and 20 μl of 1× Promega lysis buffer were added to each well. The plate was incubated 15 minutes at RT and quick-frozen to −80° C. and the thaw to room temperature. 50 μl of luciferase substrate (E4550, Promega) were added to each well and luminescence (integration time 1000 msec) was read in an EnSpire multilabel reader (Perkin Elmer).

Test [2] has as its target T2, human androgen receptor (Homo sapiens, UniProt P10275, T878A).
T2 construct: endogenously expressed human androgen receptor using the LnCap prostate cancer cell line; endogenous in cells; host or cells: LNCaP prostate cancer cell line (whole cells)
T2 sequence (P10275 1-920 T878A): T1 sequence (P10275 1-920 Q868H) with H868Q, T878A
The test can be described thus: Human Androgen Receptor Binding (radioligand binding, LnCap prostate cancer cell line). The settings on record: LnCap cells, displacement of [^3H]-methyltrienolone, 2 hours at 37° C.; read-out: AR LNCaP. Put shortly:
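Whole-cell displacement of [3H]-methyltrienolone from endogenous AR (T878A) in LnCap cells, in RPMI with 0.1% BSA and triamcinolone acetonide. Compounds 10 μM to 0.1 nM in 1:10 steps, 2 h at 37 °C; cells washed, SDS-lysed, bound radioactivity by scintillation counting for IC50.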

Test [3] deals with T3, Rat Androgen Receptor (Rattus norvegicus, UniProt P15207).
T3 construct: purchased Life Technologies A15880
T3 sequence (P15207 646-902 limits assumed): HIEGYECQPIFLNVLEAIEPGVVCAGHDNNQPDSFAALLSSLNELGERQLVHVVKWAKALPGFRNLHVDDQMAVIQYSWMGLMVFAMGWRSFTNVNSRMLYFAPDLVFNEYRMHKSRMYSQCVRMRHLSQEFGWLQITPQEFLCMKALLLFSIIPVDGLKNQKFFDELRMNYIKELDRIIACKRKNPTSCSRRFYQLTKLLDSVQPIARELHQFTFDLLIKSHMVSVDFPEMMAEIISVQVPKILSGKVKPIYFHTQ
The test can be described thus: Rat Androgen Receptor Binding (polarscreen AR competitor assay, fluorescence polarization). As to conditions: displacement of Fluormone AL Green, 4 hours at RT, read-out: AR rat-fluorimetric. Summed up: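 Fluorescence-polarization competition of Fluormone AL Green binding to rat androgen receptor; compounds screened in duplicate at 1 and 10 μM, 4 h at RT, read at λexc 485/λem 535 nm. IC50 from 1:10 dilution series, 10 μM to 0.1 nM, in 1× buffer.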

Consider `CC(=O)C1=C(C)NC(C2CC2)=C(C(=O)OCc2ccncc2)C1c1csc2ccccc12` (centres unmarked) [Example J32, Pyridin-4-ylmethyl 5-acetyl-4-(benzo[b]thiophen-3-yl)-2-cyclopropyl-6-methyl-1,4-dihydropyridine-3-carboxylate], for which the Kb in test [1] was 100 to 1000 nM. For the same compound, the IC50 in test [2] is not below 1000 nM.

For the compound `CC(=O)C1=C(C)NC(C)=C(C(=O)Cc2ccccc2)C1c1csc2ccccc12` (centres unmarked) [Example C52, 1-(5-acetyl-4-(benzo[b]thiophen-3-yl)-2,6-dimethyl-1,4-dihydropyridin-3-yl)-2-phenylethan-1-one], the antagonist dissociation constant (Kb) in test [1] is 100 to 1000 nM. Besides, the IC50 in test [3] lay within 100 to 1000 nM.

For the compound `CC(=O)C1=C(C)NC(C)=C(C(=O)OCC2CCCCC2)C1c1csc2ccccc12` (centres unmarked) [Example B21, Cyclohexylmethyl 5-acetyl-4-(benzo[b]thiophen-3-yl)-2,6-dimethyl-1,4-dihydropyridine-3-carboxylate], the Kb in test [1] was in the range of 100 to 1000 nM. The values for the IC50 in test [2] and in test [3] were not below 1000 nM and 100 to 1000 nM, respectively.

As for `CC(=O)C1=C(C)NC(C)=C(C(=O)OCc2ccncc2)C1c1csc2ccccc12` (centres unmarked) [Example B12, Pyridin-4-ylmethyl 5-acetyl-4-(benzo[b]thiophen-3-yl)-2,6-dimethyl-1,4-dihydropyridine-3-carboxylate], the Kb in test [1] was less than 100 nM. Moreover, the IC50 in test [2] and in test [3] was not below 1000 nM in each case.

As to `CC(=O)C1=C(C)NC(C)=C(C(=O)OCCc2ccccc2)C1c1csc2ccccc12` (centres unmarked) [Example C10, Phenethyl 5-acetyl-4-(benzo[b]thiophen-3-yl)-2,6-dimethyl-1,4-dihydropyridine-3-carboxylate], in test [1], the Kb was in the range of 100 to 1000 nM. In test [3], the IC50 is not below 1000 nM.

`CC(=O)C1=C(C)NC(C)=C(C(=O)OCc2ccncc2)C1c1csc2c(Br)cccc12` (centres unmarked) [Example J33, Pyridin-4-ylmethyl 5-acetyl-4-(7-bromobenzo[b]thiophen-3-yl)-2,6-dimethyl-1,4-dihydropyridine-3-carboxylate]: the Kb in test [1] was 100 to 1000 nM. Also, the IC50 in test [2] is 100 to 1000 nM.
